Assay results published in paper PMC6009895, “Screening assay for inhibitors of a recombinant Streptococcus pneumoniae UDP-glucose pyrophosphorylase” (Journal of Enzyme Inhibition and Medicinal Chemistry, 2017).

Each compound was assayed against T1, His6GalUSpn (UDP-glucose pyrophosphorylase, UDPG:PP, GalU) (Streptococcus pneumoniae, UniProt O86882) (assay: malachite green Pi assay coupled to inorganic pyrophosphatase). Conditions: 30 min preincubation at 37 °C with 7.5 mM compound; 7.5 mM UTP, 7.5 mM Glc-1P, 5 mM MgCl2, MOPS pH 8.0, 37 °C.
T1 construct: complete galU gene amplified from plasmid pMMG2 into pET28a (NheI/BamHI; pETgalU), His6 tag before the protein, tag cut not mentioned; E. coli BL21(DE3), IMAC
T1 sequence (O86882 entry or part of it): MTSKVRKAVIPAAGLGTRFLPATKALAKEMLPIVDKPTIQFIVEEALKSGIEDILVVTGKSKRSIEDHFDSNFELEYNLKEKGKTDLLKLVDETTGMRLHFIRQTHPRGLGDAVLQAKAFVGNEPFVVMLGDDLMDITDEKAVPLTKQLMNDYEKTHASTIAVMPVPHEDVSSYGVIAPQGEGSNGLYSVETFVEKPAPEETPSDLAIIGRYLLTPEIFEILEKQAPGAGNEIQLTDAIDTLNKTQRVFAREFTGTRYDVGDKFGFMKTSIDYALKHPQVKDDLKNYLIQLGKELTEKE
Type: biochemical
In the case of `Nc1nc(NC2CC2)c2ncn([C@H]3C=C[C@@H](CO)C3)c2n1` [abacavir], the “% inhibition at 7.5 mM” value is reported as “inhibit S. pneumoniae UDP-glucose pyrophosphorylase, including compounds containing a purine base in their structure”.
In the case of `Cc1cn([C@H]2C=C[C@@H](CO)O2)c(=O)[nH]c1=O` [stavudine], the “% inhibition at 7.5 mM” value is reported as “nucleoside analogs: abacavir, decitabine stavudine and zidovudine”.
For `Cc1cn([C@H]2C[C@H](N=[N+]=[N-])[C@@H](CO)O2)c(=O)[nH]c1=O` [zidovudine], the “% inhibition at 7.5 mM” value was “nucleoside analogs: abacavir, decitabine stavudine and zidovudine”.
